Source: patent US4863951A, “Pharmacologically active amino-5,6,7,8-tetrahydronaphtho [2,3-B] furan compounds” (ADIR Et Cie, priority 1987, dated 1989)
Where a name gives a salt, the structure may show the parent alone. Read-outs that look alike come from different tables or passages of the source.

Assays:
[1] = tested on: amphetamine-induced stereotypy; experiment: Antagonism of amphetamine-induced stereotypy in rats; type: in vivo; conditions: 3 hours
Description: The inhibitory activity of the compounds of the invention with respect to apomorphine- or amphetamine-induced stereotypy in rats was assessed using the scale of scoring of stereotyped movements described by Quinton R. M. and Halliwell G. in Nature (1963), 200, p. 178-179.
Apomorphine or amphetamine was administered to the animals intraperitoneally at a dose of 1.5 mg.kg^-1. The percentage inhibition (-) or potentiation (+) of the stereotypy score (% ISS) shown in Tables IV and V for apomorphine corresponds to a measurement time of 30 minutes. In contrast, the percentage inhibition of the stereotypy score shown in Table VI for amphetamine corresponds to a measurement time of 3 hours.
(s=significant difference, p<0.05).

[2] = tested on: apomorphine-induced stereotypy; experiment: Antagonism of apomorphine-induced stereotypy in rats; type: in vivo; conditions: Rattus norvegicus, 0.5 h, apomorphine 1.5 mg.kg^-1 i.p., 30 minutes
Procedure, shortened: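 Rats received apomorphine or amphetamine i.p. at 1.5 mg.kg^-1, and stereotyped movements were scored on the Quinton–Halliwell scale. Values are % inhibition (−) or potentiation (+) of stereotypy score, measured at 30 minutes for apomorphine and 3 hours for amphetamine.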

[3] = tested on: aggression of isolated, bulbectomized rats; experiment: Antiaggressive effects: aggression of isolated, bulbectomized rats; type: in vivo; conditions: i.p.
Procedure, shortened: (§1)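 Two paradigms: inhibition of aggressive behaviour in previously isolated mice, and in isolated, bulbectomized rats. Significance set at p<0.05.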

[4] = tested on: ponto-geniculo-occipital (P.G.O.) waves induced by Ro4-1284; experiment: Antagonism of the ponto-geniculo-occipital (P.G.O.) waves induced by Ro4-1284; type: in vivo; conditions: Felis catus, iv, cats, i.v., read-out: ED50 (effective dose inhibiting by 50% the number of P.G.O. waves)
Description: The antidepressant effects of the compounds of the invention were investigated by assessing the antagonism of reserpine-induced hypothermia and the antagonism of the ponto-geniculo-occipital waves induced by the compound Ro4-1284 in cats.
This study was performed according to the method of Ruch-Monachon M. A., Jalfre M. and Haefely W. described in Arch. Int. Pharm. Therap., (1976), 219, No. 2, p. 251-346, and it enabled the effective dose (i.v) inhibiting by 50% (ED50) the number of P.G.O waves to be assessed.

[5] = tested on: reserpine-induced hypothermia; experiment: Antagonism of reserpine-induced hypothermia; type: in vivo, Swiss CD male mice; conditions: mice, reserpine 2.5 mg.kg^-1 i.p.
Procedure, shortened: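 Male Swiss CD mice (27-28 g, n=10/group) given reserpine 2.5 mg.kg^-1 i.p., then test compound i.p. 3 h later. Rectal temperature taken 1 and 2 h after compound dosing and compared with each animal's temperature just before compound administration.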

[6] = tested on: isolation-induced aggression; experiment: Antiaggressive effects: isolation-induced aggression in mice; type: in vivo; conditions: isolated mice, i.p.
Procedure, shortened: as §1

[7] = tested on: apomorphine-induced hypothermia; experiment: Antagonism with respect to apomorphine-induced hypothermia in mice; type: in vivo; conditions: Mus musculus, 2 h, apomorphine 1 mg.kg^-1 s.c., after 2 hours
Description: Testing for an antagonism with respect to apomorphine-induced hypothermia in mice was performed according to the method described by CHERMAT R. and PONCELET M. in J. Pharmac. (1983), 14, No. 1, p. 93-97. The dose of apomorphine administered subcutaneously was 1 mg.kg^-1. Tables VII and VIII show the percentage antagonism of the hypothermia observed after 2 hours.

[8] = tested on: apomorphine-induced rearing-up; experiment: Antagonism of apomorphine-induced rearing-up behavior in mice; type: in vivo; conditions: Mus musculus, apomorphine 0.75 mg.kg^-1 s.c.
Procedure, shortened: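 Mice given compound i.p. (doses from 2.5 mg.kg^-1) or orally at 20 mg.kg^-1, then challenged with apomorphine 0.75 mg.kg^-1 s.c.; antagonism of rearing-up behavior scored per Protais et al., significance at p<0.05.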

[9] = tested on: interoceptive stimulus of apomorphine; experiment: Drug discrimination in rats (generalization with apomorphine); type: in vivo; conditions: 30 minutes before test
Description: Rats were trained to discriminate between the effect of the interoceptive stimulus of apomorphine (0.2 mg.kg^-1 i.p.) and that of physiological saline, according to a principle described by Colpaert F. in "Drug discrimination application in C.N.S. Pharmacology" Ed. Elsevier Biomedical 1982, Amsterdam. […]
Under the experimental conditions employed, the behavior shown by the animals coincides with that noted in the case of administration of apomorphine.

`NC1CCc2cc3c(cc2C1)OCC3` (racemic) [Example 2, di-7-Amino-2,3,5,6,7,8-hexahydronaphtho[2,3-b]furan hydrochloride] was tested, and the “% ISS (inhibition (-) or potentiation (+) of the stereotypy score)” value ([1]; i.p. dose 5 mg.kg^-1, amphetamine 1.5 mg.kg^-1 i.p.) was “+32%”, the “% ISS (inhibition (-) or potentiation (+) of the stereotypy score)” value ([1]; i.p. dose 10 mg.kg^-1, amphetamine 1.5 mg.kg^-1 i.p.) was “+39%” and the change in vivo at 5 mg/kg ([2]; ip, read-out: % ISS (inhibition (-) or potentiation (+) of the stereotypy score), rats, i.p. dose 5 mg.kg^-1) was -16%. For the same compound, the change in vivo at 10 mg/kg ([2]; ip, read-out: % ISS (inhibition (-) or potentiation (+) of the stereotypy score), rats, i.p. dose 10 mg.kg^-1) was -62%, the change in vivo at 20 mg/kg ([2]; ip, read-out: % ISS (inhibition (-) or potentiation (+) of the stereotypy score), rats, i.p. dose 20 mg.kg^-1) was -48% and the change in vivo at 10 mg/kg ([2]; po, read-out: % ISS (inhibition (-) or potentiation (+) of the stereotypy score), rats, p.o. dose 10 mg.kg^-1) was -55%. For the same compound, the change in vivo at 20 mg/kg ([2]; po, read-out: % ISS (inhibition (-) or potentiation (+) of the stereotypy score), rats, p.o. dose 20 mg.kg^-1) was -55%, the “% of rats rendered non-aggressive” value ([3]; 1.25 mg.kg^-1) was 17% and the “% of rats rendered non-aggressive” value ([3]; 2.5 mg.kg^-1) was 50%. For the same compound, the “% of rats rendered non-aggressive” value ([3]; 5 mg.kg^-1) was 73%, the “% of rats rendered non-aggressive” value ([3]; 10 mg.kg^-1) was 17% and the ED50 [4] was 0.146 mg/kg. For the same compound, the “% inhibition of hypothermia” value ([5]; 2.5 mg.kg^-1 i.p.) was -62%, the “% inhibition of hypothermia” value ([5]; 5 mg.kg^-1 i.p.) was -27% and the “% inhibition of hypothermia” value ([5]; 10 mg.kg^-1 i.p.) was -32%. The “% inhibition of hypothermia” value ([5]; 20 mg.kg^-1 i.p.) was -47%, the “% of pairs of mice showing no sign of fighting” value ([6]; 2.5 mg.kg^-1) was 40% and the “% of pairs of mice showing no sign of fighting” value ([6]; 5 mg.kg^-1) was 70%. The “% of pairs of mice showing no sign of fighting” value ([6]; 10 mg.kg^-1) was 100%, the “% of pairs of mice showing no sign of fighting” value ([6]; 20 mg.kg^-1) was 100% and the change in vivo at 1 mg/kg ([7]; ip, read-out: % antagonism of hypothermia, mice, i.p. dose 1) was -11%. For the same compound, the change in vivo at 5 mg/kg ([7]; ip, read-out: % antagonism of hypothermia, mice, i.p. dose 5) was -57%, the change in vivo at 10 mg/kg ([7]; ip, read-out: % antagonism of hypothermia, mice, i.p. dose 10) was -54% and the change in vivo at 20 mg/kg ([7]; ip, read-out: % antagonism of hypothermia, mice, i.p. dose 20) was -80%. It also gave a change in vivo at 2.5 mg/kg ([7]; po, read-out: % antagonism of hypothermia, mice, p.o. dose 2.5) of -35%, a change in vivo at 5 mg/kg ([7]; po, read-out: % antagonism of hypothermia, mice, p.o. dose 5) of -59% and a change in vivo at 10 mg/kg ([7]; po, read-out: % antagonism of hypothermia, mice, p.o. dose 10) of -70%. For the same compound, the change in vivo at 20 mg/kg ([7]; po, read-out: % antagonism of hypothermia, mice, p.o. dose 20) was -86%, the change in vivo at 5 mg/kg ([8]; ip, read-out: % inhibition of rearing-up, mice, i.p. dose 5 mg.kg^-1) was -56% and the change in vivo at 10 mg/kg ([8]; ip, read-out: % inhibition of rearing-up, mice, i.p. dose 10 mg.kg^-1) was -58%. For the same compound, the change in vivo at 20 mg/kg ([8]; ip, read-out: % inhibition of rearing-up, mice, i.p. dose 20 mg.kg^-1) was -91%, the change in vivo at 40 mg/kg ([8]; ip, read-out: % inhibition of rearing-up, mice, i.p. dose 40 mg.kg^-1) was -100% and the change in vivo at 10 mg/kg ([8]; po, read-out: % inhibition of rearing-up, mice, p.o. dose 10 mg.kg^-1) was -77%. The change in vivo at 20 mg/kg ([8]; po, read-out: % inhibition of rearing-up, mice, p.o. dose 20 mg.kg^-1) was -100%, the “% of animals which generalize” value ([9]; 1.0 mg.kg^-1 i.p.) was 20% and the “Number of animals showing the effect of generalization with apomorphine” value (from here on “Number”) ([9]; 1.0 mg.kg^-1 i.p.) was 2/10. For the same compound, the “% of animals which generalize” value ([9]; 2.5 mg.kg^-1 i.p.) was 77%, the “Number” value ([9]; 2.5 mg.kg^-1 i.p.) was 7/9 and the “% of animals which generalize” value ([9]; 5.0 mg.kg^-1 i.p.) was 50%. The “Number” value ([9]; 5.0 mg.kg^-1 i.p.) was 2/4.
